# Experimental data published in patent publication US6465654B2, “Process for preparing 1-substituted, 2-substituted 1H-imidazo[4, 5-c]quinoline-4-amines” (3M Innovative Properties Company, priority 1991, dated 2002).
# Assays:
# [1] = tested on: interferon; assay: Interferon induction in mice; format: in vivo; settings: mouse serum
# Protocol: One hour later blood samples are withdrawn from the first group. The samples are pooled then centrifuged. The serum is removed from the centrifuge tube, split into two portions, then placed in freezing vials and maintained at −70° C. until analysis. This procedure is repeated at 2 hours with the second group of mice and at 4 hours with the third group of mice. Samples are assayed as described above in connection with the analysis of interferon induction in human cells. The results are expressed in the table below as α/β reference units/mL based on the value obtained for a mouse MU-1-IF standard. Results are shown in the table below wherein results designated as “<” a certain number indicate that interferon was not detectable in amounts above the lower sensitivity level of the assay.
# [2] = tested on: interferon-α; assay: Interferon-α induction in human cells, diluted whole blood; format: cell-based; settings: 24 hours
# [3] = tested on: vesicular stomatitis virus (VSV); assay: microbe, parasite or virus in culture; format: cell-based; settings: for log reduction at 0.1 µg/mL / log reduction at 0.5 µg/mL / log reduction at 1 µg/mL: Vesicular stomatitis virus, read-out: VSV Yield Inhibition; for VSV Yield Inhibition: log10 (control VSV yield/experimental VSV yield)
# [4] = tested on: interferon-α; assay: Interferon-α induction in human cells, PBM; format: cell-based; settings: 24 hours
Compound,log reduction at 0.1 µg/mL [3],log reduction at 0.5 µg/mL [3],log reduction at 1 µg/mL [3],"Interferon induction in mice ([1]; oral 0.3 mg/kg, 1 hr)","Interferon induction in mice ([1]; oral 0.3 mg/kg, 2 hr)","Interferon induction in mice ([1]; oral 0.3 mg/kg, 4 hr)","Interferon induction in mice ([1]; oral 1 mg/kg, 1 hr)","Interferon induction in mice ([1]; oral 1 mg/kg, 2 hr)","Interferon induction in mice ([1]; oral 1 mg/kg, 4 hr)","Interferon induction in mice ([1]; oral 3 mg/kg, 1 hr)","Interferon induction in mice ([1]; oral 3 mg/kg, 2 hr)","Interferon induction in mice ([1]; oral 3 mg/kg, 4 hr)","Interferon induction in mice ([1]; oral 10 mg/kg, 1 hr)","Interferon induction in mice ([1]; oral 10 mg/kg, 2 hr)","Interferon induction in mice ([1]; oral 10 mg/kg, 4 hr)",Interferon-α induction ([4]; dose concentration 0.10 μg/mL),Interferon-α induction ([4]; dose concentration 0.50 μg/mL),Interferon-α induction ([4]; dose concentration 1.0 μg/mL),Interferon-α induction ([4]; dose concentration 5.0 μg/mL),further results
"CC(C)Cn1c(C(C)(C)O)nc2c(N)nc3ccccc3c21 [Example 23, 4-Amino-α,α-dimethyl-1-(2-methylpropyl)-1H-imidazo[4,5-c]quinoline-2-methanol]",–,–,–,–,–,–,–,–,–,–,–,–,–,–,–,–,–,–,–,"Interferon induction in mice ([1]; oral 30 mg/kg, 1 hr): 1200 Reference Units/mL; Interferon induction in mice ([1]; oral 30 mg/kg, 2 hr): 1200 Reference Units/mL; Interferon induction in mice ([1]; oral 30 mg/kg, 4 hr): 140 Reference Units/mL; Interferon-α induction ([2]; dose concentration 0.10 μg/mL): <1.8 α Reference Units/mL; Interferon-α induction ([2]; dose concentration 0.50 μg/mL): <1.8 α Reference Units/mL; Interferon-α induction ([2]; dose concentration 1.0 μg/mL): 84 α Reference Units/mL; Interferon-α induction ([2]; dose concentration 5.0 μg/mL): 250 α Reference Units/mL"
"CCOCc1nc2c(N)nc3ccccc3c2n1CCCOC [Example 44, 2-Ethoxymethyl-1-(3-methoxypropyl)-1H-imidazo[4,5-c]quinolin-4-amine]",3,4,7,˜570 Reference Units/mL,510 Reference Units/mL,<260 Reference Units/mL,990 Reference Units/mL,<260 Reference Units/mL,<260 Reference Units/mL,1000 Reference Units/mL,1500 Reference Units/mL,<260 Reference Units/mL,1800 Reference Units/mL,1600 Reference Units/mL,790 Reference Units/mL,3000 α Reference Units/mL,430 α Reference Units/mL,430 α Reference Units/mL,760 α Reference Units/mL,–
"CCCCC(OC)c1nc2c(N)nc3ccccc3c2n1CC(C)C (stereo not drawn) [Example 61, 2-(1-Methoxypentyl)-1-(2-methylproyl) -1H-imidazo[4,5-c]quinolin-4-amine]",–,–,–,<56 Reference Units/mL,<56 Reference Units/mL,<56 Reference Units/mL,120 Reference Units/mL,220 Reference Units/mL,97 Reference Units/mL,290 Reference Units/mL,500 Reference Units/mL,120 Reference Units/mL,290 Reference Units/mL,1100 Reference Units/mL,160 Reference Units/mL,64 α Reference Units/mL,1300 α Reference Units/mL,330 α Reference Units/mL,330 α Reference Units/mL,VSV Yield Inhibition ([3]; dose concentration 0.1 μg/mL): 5 log10; VSV Yield Inhibition ([3]; dose concentration 0.5 μg/mL): 7 log10; VSV Yield Inhibition ([3]; dose concentration 1.0 μg/mL): 5 log10
"COC(C)c1nc2c(N)nc3ccccc3c2n1CC(C)C (stereo not drawn) [Example 66, 2-(1-Methoxyethyl)-1-(2-methylpropyl)-1H-imidazo[4,5-c]quinolin-4-amine]",2,2,3,<56 Reference Units/mL,<56 Reference Units/mL,<56 Reference Units/mL,<56 Reference Units/mL,<56 Reference Units/mL,<56 Reference Units/mL,<74 Reference Units/mL,<120 Reference Units/mL,<56 Reference Units/mL,1100 Reference Units/mL,2600 Reference Units/mL,380 Reference Units/mL,<5 α Reference Units/mL,<5 α Reference Units/mL,1000 α Reference Units/mL,1000 α Reference Units/mL,–
"CCOCc1nc2c(N)nc3cc(Cl)ccc3c2n1CC(C)(C)O [Example 85, 4-Amino-7-chloro-α,α-dimethyl-2-ethoxymethyl-1H-imidazo[4,5-c]quinoline-1-ethanol]",5,5,5,670 Reference Units/mL,670 Reference Units/mL,<250 Reference Units/mL,˜980 Reference Units/mL,3900 Reference Units/mL,≦330 Reference Units/mL,1500 Reference Units/mL,4300 Reference Units/mL,˜430 Reference Units/mL,2200 Reference Units/mL,5700 Reference Units/mL,˜570 Reference Units/mL,86 α Reference Units/mL,100 α Reference Units/mL,220 α Reference Units/mL,230 α Reference Units/mL,–
"CC(C)(O)Cn1c(CO)nc2c(N)nc3ccccc3c21 [Example 90, 4-Amino-α,α-dimethyl-2-hydroxymethyl-1H-imidazo[4,5-c]quinoline-1-ethanol]",5,4,5,<74 Reference Units/mL,<74 Reference Units/mL,<74 Reference Units/mL,<74 Reference Units/mL,<74 Reference Units/mL,<74 Reference Units/mL,≦130 Reference Units/mL,570 Reference Units/mL,≦74 Reference Units/mL,750 Reference Units/mL,3500 Reference Units/mL,≦140 Reference Units/mL,3000 α Reference Units/mL,640 α Reference Units/mL,420 α Reference Units/mL,580 α Reference Units/mL,Interferon-α induction ([4]; dose concentration 0.01 μg/mL): <6.4 α Reference Units/mL; Interferon-α induction ([4]; dose concentration 0.05 μg/mL): 640 α Reference Units/mL
"CCOCc1nc2c(N)nc3ccccc3c2n1Cc1ccccc1 [Example 93, 2-Ethoxymethyl-1-phenylmethyl-1H-imidazo[4,5-c]quinolin-4-amine]",0,5,5,400 Reference Units/mL,360 Reference Units/mL,≦150 Reference Units/mL,660 Reference Units/mL,1500 Reference Units/mL,340 Reference Units/mL,1300 Reference Units/mL,1300 Reference Units/mL,˜260 Reference Units/mL,2100 Reference Units/mL,2900 Reference Units/mL,630 Reference Units/mL,850 α Reference Units/mL,280 α Reference Units/mL,300 α Reference Units/mL,300 α Reference Units/mL,–
"COCc1nc2c(N)nc3ccccc3c2n1CC(C)(C)O [Example 96, 4-Amino-α,α-dimethyl-2-methoxymethyl-1H-imidazo[4,5-c]quinoline-1-ethanol]",6,5,5,2900 Reference Units/mL,3400 Reference Units/mL,620 Reference Units/mL,3200 Reference Units/mL,5000 Reference Units/mL,1100 Reference Units/mL,3000 Reference Units/mL,10000 Reference Units/mL,960 Reference Units/mL,2900 Reference Units/mL,4700 Reference Units/mL,˜350 Reference Units/mL,1200 α Reference Units/mL,460 α Reference Units/mL,1000 α Reference Units/mL,900 α Reference Units/mL,Interferon-α induction ([4]; dose concentration 0.01 μg/mL): <6.4 α Reference Units/mL; Interferon-α induction ([4]; dose concentration 0.05 μg/mL): 44 α Reference Units/mL
